Experimental data taken from patent US20020173468A1, “MODIFIED CYTOSTATIC AGENTS” (priority 1996, published 2002).
Structures can show the parent of a compound that is named as a salt.

Legend:
Format in all cases: cell-based
[1] = system: B16F10 mouse melanoma cell line; test: Growth inhibition test (MTT) for cytotoxic properties, B16F10; conditions: B16F10 cells
Protocol: (§1) 1. Growth Inhibition Test for the Determination of Cytotoxic Properties
(§2) They were then trypsinized and taken up in RPMI plus 10% FCS to give a cell count of 50,000 cells/ml. 100 μl of cell suspension/well were added to a 96 microwell plate and incubated for 1 day at 37° C. in a CO2 incubator. A further 100 μl of RPMI medium and 1 μl of DMSO were then added with the test substances. The growth was checked after day 3 and day 6. To do this, 40 μl of MTT solution (3-(4,5-dimethylthiazol-2-yl)-2,5-diphenyl-tetrazolin bromide) were added to each microwell at a starting concentration of 5 mg/ml of H2O. Incubation was carried out at 37° C. for 5 hours in the CO2 incubator. The medium was then aspirated and 100 μl of i-propanol/well were added. After shaking for 30 min with 100 μl of H2O, the extinction was measured at 540 nm using a Titertek Multiskan MCC/340 (flow).
(§3) The cytotoxic action is indicated in Table 1 as an IC50 value in each case for the SW 480 and HT 29 and B16F10 cell lines: […]

[2] = system: SW 480 human colonic tumour cell line; test: Growth inhibition test (MTT) for cytotoxic properties, SW 480; conditions: SW 480 cells
Protocol: as §1, §2, §3

[3] = system: mouse bone marrow stem cells; test: Inhibition of the CSF-induced proliferation of mouse bone marrow stem cells (colony formation); conditions: recombinant murine GM-CSF, 7 days; for IC50: Mus musculus, 168 h
Protocol: 2. Haematopoietic Activity of Conjugates in Comparison with the Basic Active Compound
Bone marrow cells were rinsed from mouse femurs. 10^5 cells were incubated in McCoy 5A medium (0.3% agar) together with recombinant murine GM-CSF (Genzyme; stem cell colony formation) and the substances (10^−4 to 100 μg/ml) at 37° C. and 7% CO2. 7 days later, the colonies ([…]50 cells) and clusters (17-50 cells) were counted.

[4] = system: HT 29 human colonic tumour cell line; test: Growth inhibition test (MTT) for cytotoxic properties, HT 29; conditions: HT 29 cells
Protocol: as §1, §2, §3

Compound | IC50 [1] [nM] | IC50 [2] [nM] | IC50, inhibition of the CSF-induced proliferation of mouse bone marrow stem cells [3] [ng/mL] | IC50 [4] [nM] | IC50 [3] [ng/mL]
Cl.NCCCCC(NC(=S)Nc1ccc(O)cc1)C(=O)NC1C=CCC2CN(c3c(F)cc4c(=O)c(C(=O)O)cn(C5CC5)c4c3Cl)CC21 (racemic) [2.4), N-[N^α-(4-Hydroxy-phenylamino-thiocarbonyl)-lysyl]-quinolone-a, hydrochloride] | 1000 | 800 | 60.0 | 900 | 
N[C@@H]1C=CC[C@@H]2CN(c3c(F)cc4c(=O)c(C(=O)O)cn(C5CC5)c4c3Cl)C[C@@H]21 (racemic) [Quinolone-a, 7-[(3aRS, 4RS, 7aSR)-4-amino-1,3,3a,4,7,7a-hexahydro-iso-indol-2-yl]-8-chloro-1-cyclopropyl-6-fluoro-1,4-dihydro-4-oxo-3-quinolinecarboxylic acid, reference compound] |  |  |  |  | 0.2
CCC1(OC(=O)C(C)NC(=O)C(CCCCNC(=S)Nc2ccc(O)cc2)NC(=S)Nc2ccc(O)cc2)C(=O)OCc2c1cc1n(c2=O)Cc2cc3ccccc3nc2-1 (stereo not drawn) [4.9), 20-O-[N^α,N^ε-bis-(4-Hydroxy-phenylamino-thiocarbonyl)-lysyl-alanyl]-camptothecin] | 200 | 20 | 22 | 15 | 
CCC1(OC(=O)[C@@H](C)NC(=O)C(CCCCNC(=S)Nc2ccc(O)cc2)NC(=S)Nc2ccc(O)cc2)C(=O)OCc2c1cc1n(c2=O)Cc2cc3ccccc3nc2-1 (stereo partly drawn) [4.10), 20-O-[N^α,N^ε-bis-(4-Hydroxy-phenylamino-thiocarbonyl)-lysyl-D-alanyl]-camptothecin] | 200 | 20 |  | 10 | 
CCC1(OC(=O)[C@H](Cc2ccccc2)NC(=O)[C@H](CCCCNC(=S)Nc2ccc(O)cc2)NC(=S)Nc2ccc(O)cc2)C(=O)OCc2c1cc1n(c2=O)Cc2cc3ccccc3nc2-1 (stereo partly drawn) [4.11), 20-O-[N^α,N^ε-bis-(4-Hydroxy-phenylamino-thiocarbonyl)-lysyl-phenylalanyl]-camptothecin] | 200 | 60 |  | 30 | 
CC[C@@]1(OC(=O)[C@@H](NC(=O)[C@H](CCCCN)NC(=S)Nc2cccc(O)c2)C(C)C)C(=O)OCc2c1cc1n(c2=O)Cc2cc3ccccc3nc2-1 [4.12), 20-O-[N^α-(3-Hydroxy-phenylamino-thiocarbonyl)-lysyl-valyl]-camptothecin, hydrochloride] | 200 | 40 |  | 30 | 
CC[C@@]1(OC(=O)C(NC(=O)C(CCCCN)NC(=S)Nc2ccccc2O)C(C)C)C(=O)OCc2c1cc1n(c2=O)Cc2cc3ccccc3nc2-1 (stereo partly drawn) [4.13), 20-O-[N^α-(2-Hydroxy-phenylamino-thiocarbonyl)-lysyl-valyl]-camptothecin, hydrochloride] | 200 | 60 |  | 40 | 
CCC1(OC(=O)[C@@H](NC(=O)[C@H](CCCCN)NC(=S)Nc2ccc(OC)cc2)C(C)C)C(=O)OCc2c1cc1n(c2=O)Cc2cc3ccccc3nc2-1 (stereo partly drawn) [4.14), 20-O-[N^α-(4-Methoxy-phenylamino-thiocarbonyl)-lysyl-valyl]-camptothecin, hydrochloride] | 750 | 160 |  | 75 | 
CCC1(OC(=O)C(NC(=O)C(CCCCN)NC(=S)Nc2cccc(OC)c2)C(C)C)C(=O)OCc2c1cc1n(c2=O)Cc2cc3ccccc3nc2-1 (stereo not drawn) [4.15), 20-O-[N^α-(3-Methoxy-phenylamino-thiocarbonyl)-lysyl-valyl]-camptothecin, hydrochloride] | 200 | 90 |  | 60 | 
CCC1(OC(=O)C(NC(=O)C(CCCCN)NC(=S)Nc2ccc([N+](=O)[O-])cc2)C(C)C)C(=O)OCc2c1cc1n(c2=O)Cc2cc3ccccc3nc2-1 (stereo not drawn) [4.16), 20-O-[N^α-(4-Nitro-phenylamino-thiocarbonyl)-lysyl-valyl]-camptothecin, hydrochloride] | 600 | 150 |  | 120 | 
CCC1(OC(=O)C(NC(=O)C(CCCCN)NC(=S)Nc2cccc([N+](=O)[O-])c2)C(C)C)C(=O)OCc2c1cc1n(c2=O)Cc2cc3ccccc3nc2-1 (stereo not drawn) [4.17), 20-O-[N^α-(3-Nitro-phenylamino-thiocarbonyl)-lysyl-valyl]-camptothecin, hydrochloride] | 800 | 300 |  | 170 | 
CCC1(OC(=O)C(NC(=O)C(CCCCN)NC(=S)Nc2ccc(N)cc2)C(C)C)C(=O)OCc2c1cc1n(c2=O)Cc2cc3ccccc3nc2-1 (stereo not drawn) [4.18), 20-O-[N^α-(4-Amino-phenylamino-thiocarbonyl)-lysyl-valyl]-camptothecin, hydrochloride] | 400 | 300 |  | 120 | 
CCC1(OC(=O)C(NC(=O)C(Cc2c[nH]cn2)NC(=S)Nc2ccc(O)cc2)C(C)C)C(=O)OCc2c1cc1n(c2=O)Cc2cc3ccccc3nc2-1 (stereo not drawn) [4.19), 20-O-[N^α-(4-Hydroxy-phenylamino-thiocarbonyl)-histidyl-valyl]-camptothecin, hydrochloride] | 400 | 80 |  | 40 | 
CCC1(OC(=O)C(CC(C)C)NC(=O)C(CCCCN)NC(=S)Nc2ccc(O)cc2)C(=O)OCc2c1cc1n(c2=O)Cc2cc3ccccc3nc2-1 (stereo not drawn) [4.20), 20-O-[N^α-(4-Hydroxy-phenylamino-thiocarbonyl)-lysyl-leucyl]-camptothecin, hydrochloride] | 300 | 70 |  | 60 | 
CCC1(OC(=O)C(NC(=O)C(CCCCNC(=S)Nc2ccc(O)cc2)NC(=S)Nc2ccc(O)cc2)C(C)C)C(=O)OCc2c1cc1n(c2=O)Cc2cc3ccccc3nc2-1 (stereo not drawn) [4.21), 20-O-{[N^α-N^ε-bis-(4-Hydroxy-phenylamino-thiocarbonyl)]-lysyl-valyl}-camptothecin, hydrochloride] | 3000 | 700 |  | 300 | 
CC[C@@]1(OC(=O)C(CC(=O)O)NC(=O)C(CCCCNC(=S)Nc2ccc(O)cc2)NC(=S)Nc2ccc(O)cc2)C(=O)OCc2c1cc1n(c2=O)Cc2cc3ccccc3nc2-1 (stereo partly drawn) [4.22), 20-O-[N^α,N^ε-bis-(4-Hydroxy-phenylamino-thiocarbonyl)-lysyl-aspartyl]-camptothecin, sodium salt] | 100 | 40 |  | 40 | 
CCC1(OC(=O)C(CO)NC(=O)C(CCCCNC(=S)Nc2ccc(O)cc2)NC(=S)Nc2ccc(O)cc2)C(=O)OCc2c1cc1n(c2=O)Cc2cc3ccccc3nc2-1 (stereo not drawn) [4.23), 20-O-[N^α,N^ε-bis-(4-Hydroxy-phenylamino-thiocarbonyl)-lysyl-seryl]-camptothecin] | 150 | 80 |  | 70 | 
CCc1c2c(nc3ccccc13)-c1cc3c(c(=O)n1C2)COC(=O)C3(CC)OC(=O)C(C)NC(=O)C(CCCCNC(=S)Nc1ccc(O)cc1)NC(=S)Nc1ccc(O)cc1 (stereo not drawn) [5.1), 7-Ethyl-20-O-[N^α,N^ε-bis-(4-hydroxy-phenylamino-thiocarbonyl)-lysyl-alanyl]-camptothecin] | 50 | 25 |  | 20 | 
CCc1c2c(nc3ccccc13)-c1cc3c(c(=O)n1C2)COC(=O)C3(CC)OC(=O)C(NC(=O)C(CCCCN)NC(=S)Nc1ccc(O)cc1)C(C)C (stereo not drawn) [5.2), 7-Ethyl-20-O-[N^α-(4-hydroxy-phenylamino-thiocarbonyl)-lysyl-valyl]-camptothecin, hydrochloride] | 900 | 500 |  | 300 | 
CCC1(OC(=O)[C@H](CC(C)C)NC(=O)[C@H](CCCCN)NC(=S)Nc2ccc(O)cc2)C(=O)OCc2c1cc1n(c2=O)Cc2cc3cc4c(cc3nc2-1)OCO4 (stereo partly drawn) [6), 10,11-(Methylenedioxy)-20-O-[N^α-(4-hydroxy-phenylaminothio-carbonyl)-lysyl-leucyl]-camptothecin, hydrochloride] | 15 | 5 |  | 3 | 
CCC1(O)C(=O)OCc2c1cc1n(c2=O)Cc2c-1nc1ccccc1c2COC(=O)[C@@H](NC(=O)[C@H](CCCCN)NC(=S)Nc1ccc(O)cc1)C(C)C (stereo partly drawn) [7), 7-[N^α-(4-Hydroxy-phenylamino-thiocarbonyl)-lysyl-valyloxymethyl]-camptothecin, hydrochloride] | 1000 | 60 |  | 80 | 
CCc1c2c(nc3ccc(O)cc13)-c1cc3c(c(=O)n1C2)COC(=O)C3(CC)OC(=O)[C@@H](NC(=O)[C@H](CCCCN)NC(=S)Nc1ccc(O)cc1)C(C)C (stereo partly drawn) [8), 7-Ethyl-10-hydroxy-20-O-[N^α-(4-hydroxy-phenylamino-thiocarbonyl)-lysyl-valyl]-camptothecin, hydrochloride] | 3000 | 150 |  | 200 | 
CC[C@@]1(O)C(=O)OCc2c1cc1n(c2=O)Cc2cc3ccccc3nc2-1 [Camptothecin, 20(S)-Camptothecin, reference compound] |  |  |  |  | 0.4
